What was measured:
[1] = Solubility in organic solvents; type: physicochemical; settings: volume of methanol for 5 milligram
SKOV-3TR = assay: MTT cytotoxicity assay and reversal of MDR in SKOV-3TR; type: cell-based, human; settings: for potency of isomer on reversing drug resistance: with paclitaxel, MTT 6 days post-treatment; for IC50: Homo sapiens, SKOV3TR, 144 h, without NSC23925b, MTT, 6 days, read-out: IC50 of chemotherapy drug alone
Description: (§1) A panel of parental cancer cell line and their daughter resistant cell lines, displaying MDR phenotype were used in this study. Human ovarian cancer cell line SKOV-3, breast cancer cell line MCF-7 and colon cancer cell line SW480, the osteosarcoma cell line U-2OS, KHOS, uterine sarcoma cell line MESSA and its doxorubicin selected drug resistant cell line MESSA/Dx5, non-small cell lung cancer cell line H-69 and its doxorubicin selected drug resistant cell line H-69AR (overexpress MRP1) were obtained from the ATCC (Rockville, Md.). Dr. Efstathios Gonos (Institute of Biological Research & Biotechnology, Athens, Greece) provided the doxorubicin resistant U-2OS R2 (referred in the text below as U-2OSDR), KHOS R2 cell lines. Dr. Erasmus Schneider (Wadsworth Center, Albany) provided the mitoxantrane resistant breast cancer MCF-7/MX (overexpress BCRP) cell line. All the cell lines were cultured in RPMI 1640 (Invitrogen, Carlsbad, Calif.) supplemented with 10% fetal bovine serum, 100-units/ml penicillin and 100 μg/ml streptomycin (Invitrogen). Cells were incubated at 37° C. in 5% CO2-95% air atmosphere and passaged when near confluent monolayers were achieved using 2% trypsin-EDTA solution. […] The fresh chemotherapy drugs were obtained from the pharmacy at the Massachusetts General Hospital and stored at −20° C.
(§2) To evaluate for reversal of Pgp-mediated MDR, SKOV-3TR, MCF-7adr and SW480TR cell lines were seeded into 96-well tissue culture plate at 2,000 cells per well with varying concentrations of chemotherapy drugs and NSC23925b for 6 days. Cell proliferation IC50 (concentration required for 50% inhibition) and MDR reversal IC50 were determined from dose-response curves carried out in triplicate in 96-well plate. Fold of reverse resistance for individual drugs were defined as the IC50 of MDR cells without NSC23925b treatment divided by the IC50 of MDR cells treated with NSC23925b. […] Drug cytotoxicity was assessed in vitro using the MTT assay as previously described. […] Response curves were fitted with use of GraphPad PRISM 4 software (GraphPad Software).
Structure and activity relationship (SAR) of the four NSC23925 isomers for reversing MDR were evaluated in human ovarian cancer MDR cell line SKOV-3TR by MTT assay (FIGS. 1A-D). Cells were treated with the paclitaxel and NSC23925 diastereomers NSC23925a (FIG. 1A), NSC23925b (FIG. 1B), NSC23925c (FIG. 1C) and NSC23925d (FIG. 1D) in RPMI1640 complete media at the indicated concentrations. The relative sensitivity of each line to paclitaxel was determined by MTT analysis 6 days post-treatment.

SW480TR = assay: MTT cytotoxicity assay and reversal of MDR in SW480TR; type: cell-based, human; settings: Homo sapiens, 144 h, without NSC23925b, MTT, 6 days, read-out: IC50 of chemotherapy drug alone
Description: as §1, §2
(§3) MCF-7adr and SW480TR cells were treated with paclitaxel (FIGS. 2A-B), doxorubicin (FIGS. 2C-D) or mitoxantrane (FIGS. 2E-F) and NSC23925b in RPMI1640 complete media at the indicated concentrations. The relative sensitivity of each line to the indicated drugs was determined by MTT analysis 6 days post-treatment.

MCF-7adr = assay: MTT cytotoxicity assay and reversal of MDR in MCF-7adr; type: cell-based, human; settings: Homo sapiens, NCI/ADR-RES, 144 h, without NSC23925b, MTT, 6 days, read-out: IC50 of chemotherapy drug alone
Description: as §1, §2, §3

[2] = tested on: SKOV-3TR xenograft tumors; assay: SKOV-3TR xenograft tumor growth in nude mice; settings: alone; i.p. twice a week for two weeks; paclitaxel 20 mg/kg or NSC23925b 40 mg/kg
Experimental: The Crl:SHO-Prkdc^SCIDHr^hr nude female mice at approximately 3-4 weeks of age were purchased from The Charles River Laboratories (Ann Arbor, Mich.). Animal studies were carried out with protocols approved by the Massachusetts General Hospital Subcommittee on Research Animal Care (SRAC). To determine the effect of NSC23925b on paclitaxel sensitivity in xenograft model, 5×10^6 SKOV-3TR cells were injected subcutaneously with matrigel (BD Biosciences, San Jose, Calif.) on day one. Two weeks after injection, the mice were divided into four groups to start the treatments. Group one was received intraperitoneal (i.p) injection with normal saline, group two with paclitaxel (20 mg/kg), group three with NSC23925b (40 mg/kg). […] All four groups were treated twice a week for two weeks. The health of the mice and evidence of tumor growth were examined daily. Tumors were measured twice a week with a digital caliper. Tumor volume (mm^3) was calculated as (W^2×L)/2, where W is width and L is length. The curve of tumor growth was drawn according to tumor volume by using of GraphPad PRISM 4 software.
To further evaluate the effects of NSC23925b and paclitaxel combination therapy on the tumor growth of resistant cells, the growth of xenograft tumors were examined. A well-characterized ovarian cancer MDR cell line SKOV-3TR was chosen for in vivo studies. […] Tumors were measured twice a week with a digital caliper. Tumor volume (mm^3) was calculated as (W^2×L)/2, where W is width and L is length (FIG. 5A). Representative images of dissected tumor tissues from treated nude mice.

SMILES	5 milligram solubility in methanol [1] [µL]	potency of isomer on reversing drug resistance (SKOV-3TR)	IC50 (SW480TR) [nM]	IC50 (MCF-7adr) [nM]	IC50 (SKOV-3TR) [nM]	effect on paclitaxel resistant tumor cell growth, single agent [2]
COc1ccc(-c2cc([C@@H](O)[C@H]3CCCCN3)c3ccccc3n2)cc1.Cl (single isomer, unassigned) [NSC23925c, (2-(4-methoxyphenyl)quinolin-4-yl)(piperidin-2-yl)methanol hydrochloride]	150	modest but lesser activity				
COc1ccc(-c2cc([C@H](O)[C@@H]3CCCCN3)c3ccccc3n2)cc1.Cl (single isomer, unassigned) [NSC23925d, (2-(4-methoxyphenyl)quinolin-4-yl)(piperidin-2-yl)methanol hydrochloride]	150	modest but lesser activity				
COc1cccc2c1C(=O)c1c(O)c3c(c(O)c1C2=O)C[C@@](O)(C(=O)CO)C[C@@H]3O[C@H]1C[C@H](N)[C@H](O)[C@H](C)O1 [Doxorubicin, reference compound]			840 ± 160	3800 ± 120	38500 ± 2600	
O=C1c2c(O)ccc(O)c2C(=O)c2c(NCCNCCO)ccc(NCCNCCO)c21 [Mitoxantrane, reference compound]			270 ± 30	320 ± 60	460 ± 60	
COc1ccc(-c2cc([C@@H](O)[C@@H]3CCCCN3)c3ccccc3n2)cc1.Cl [NSC23925a, (2-(4-methoxyphenyl)quinolin-4-yl)(piperidin-2-yl)methanol hydrochloride]	650	least potency				
CC(=O)O[C@H]1C(=O)[C@@]2(C)[C@H]([C@H](OC(=O)c3ccccc3)[C@]3(O)C[C@H](OC(=O)[C@H](O)[C@@H](NC(=O)c4ccccc4)c4ccccc4)C(C)=C1C3(C)C)[C@]1(OC(C)=O)CO[C@@H]1C[C@@H]2O [Paclitaxel, reference compound]			120 ± 80	620 ± 120	570 ± 30	no significant effects

Source: patent publication US20140371165A1, “Identification of NSC23925 Isomers to Reverse Multidrug Resistance in Human Cancers” (priority 2012, published 2014)
